Test results as given in patent US20260286254A1, “Bleach Catalyst and Composition Comprising Said Catalyst” (Reckitt Benckiser Vanish B.V., priority 2023, published 2026).
“Also recorded” adds a separate entry of the source.

Columns and labels:
[1] = Kinetic of Tropaeolin-O degradation (UV-Vis absorbance at 430 nm); conditions: statement in text on Table 5
Method: These tests were performed following the procedure described in US2012/0205581 A1. Here, Tropaeolin-O was used as sensor molecule to describe the oxidation kinetic of the different catalysts. The catalytic activity of a bleach catalyst is given by the photocatalytic degradation of tropaeolin-O under visible light irradiation.
The kinetic of tropaeolin-O degradation of each sample was determined by measuring the UV-Vis absorbance of the sample every 60 seconds for a total period of 20 minutes at 430 nm. This was done using a UV-Vis Evolution 220 FC-1135 spectrophotometer.
A base detergent system containing tropaeolin-O was prepared by adding to 1000 mL of demineralized water at 40° C., the following ingredients: • 2.92 g of Ariel Gel (as sold in the UK), • 0.088 g of Tropaeolin-O (purity ex. Sigma and used as received), • 1.75 g of Sodium percarbonate (purity: 13.3 wt. % active oxygen), • 0.10 g of bleach activator tetraacetylethylenediamine (TEAD, purity: 92 wt. % active) […]
The 430 nm absorption peak associated to the decomposition of the sensor molecule, i.e., Tropaeolin-O, after addition of a detergent system was followed over time. […] Absorbance in Table 5 is given in absorbance units (a.u.)

[2] = Stability of bleach catalysts: UV-vis absorbance at 445 nm and appearance of alkaline solutions; format: physicochemical; conditions: for Absorption at 445 nm, t = 0 / Absorption at 445 nm, t = 48 h: 0.28 mM in 50 wt. % water/50 wt. % acetone; for Absorption at 445 nm, t = 0 / Appearance, t = 0: pH 11, t = 0; for Absorption at 445 nm, t = 48 h / Appearance, t = 48 h: pH 11, t = 48 h; for Appearance, t = 0 / Appearance, t = 48 h: alkaline conditions
Method: The stability of bleach catalysts having the structures shown in Table 1 was determined by preparing solutions of these compounds and measuring their UV-vis absorbance. The person skilled in the art will know how to synthesise the catalysts shown below starting from saccharine.
A solution of each compound was prepared by dissolving each compound in a mixture of 50 wt. % water and 50 wt. % acetone. The concentration of each solution was 0.28 mM.
The pH of each solution was set to 11 by adding few drops of a diluted solution of sodium percarbonate to mimic the alkaline conditions of the final formula.
The UV-vis absorption of each solution was measured just after preparing the samples (t=0), then at 2 h and 48 h using a UV-Vis Evolution 220 FC-1135 spectrophotometer using a 2 mm quartz cuvette.

Compound | activity / performance (tropaeolin-O decomposition), in words [1] | stability of the bleach catalyst, in words [2] | Absorption at 445 nm, t = 0 [2] | Absorption at 445 nm, t = 48 h [2] | Appearance, t = 0 [2] | Appearance, t = 48 h [2]
O=S1(=O)N=C(c2ccccn2)c2ccccc21 [Bleach catalyst 1, 3-(pyridin-2-yl)-1,2-benzisothiazole-1,1-dioxide] | enhanced activity | stable | <0.05 | <0.05 | Transparent | Transparent
O=S1(=O)N=C(c2cccnc2)c2ccccc21 [Bleach catalyst 2, 3-(pyridin-3-yl)-1,2-benzisothiazole-1,1-dioxide] | enhanced activity | stable | <0.05 | <0.05 | Transparent | Transparent
CC1=NS(=O)(=O)c2ccccc21 [Bleach catalyst A, 3-methyl-1,2-benzisothiazole-1,1-dioxide] |  |  | <0.05 | 0.37 | Transparent | coloured/yellow; also recorded: Yellowing
O=S1(=O)N=C(c2ccccc2)c2ccccc21 [Bleach catalyst B, 3-phenyl-1,2-benzisothiazole-1,1-dioxide] |  |  | <0.05 | <0.05 | Transparent | Transparent
CC(C)(C)C1=NS(=O)(=O)c2ccccc21 [Bleach catalyst C, 3-tert-butyl-1,2-benzisothiazole-1,1-dioxide] |  |  | <0.05 | <0.05 | Transparent | Transparent
CCCCCCCCCCCCC1=NS(=O)(=O)c2ccccc21 [Bleach catalyst D, 3-lauryl-1,2-benzisothiazole-1,1-dioxide] |  |  | <0.05 | 0.07 | Transparent | coloured/yellow; also recorded: Yellowing
